Consider 8 compounds from US6436940B1, “Indane or dihydroindole derivatives” (H. Lundbeck A/S, priority 1996, dated 2002).

Counter-ions that a name gives are not always drawn.

Series [1] has as its target T1, dopamine D4 receptors in cloned human dopamine receptor subtype 4.2 membranes (Homo sapiens, UniProt P21917, DEL265-296).
T1 construct: purchased Dupharma A/S, Denmark CRM-016
T1 sequence (P21917 with tags, fused parts or gaps DEL265-296): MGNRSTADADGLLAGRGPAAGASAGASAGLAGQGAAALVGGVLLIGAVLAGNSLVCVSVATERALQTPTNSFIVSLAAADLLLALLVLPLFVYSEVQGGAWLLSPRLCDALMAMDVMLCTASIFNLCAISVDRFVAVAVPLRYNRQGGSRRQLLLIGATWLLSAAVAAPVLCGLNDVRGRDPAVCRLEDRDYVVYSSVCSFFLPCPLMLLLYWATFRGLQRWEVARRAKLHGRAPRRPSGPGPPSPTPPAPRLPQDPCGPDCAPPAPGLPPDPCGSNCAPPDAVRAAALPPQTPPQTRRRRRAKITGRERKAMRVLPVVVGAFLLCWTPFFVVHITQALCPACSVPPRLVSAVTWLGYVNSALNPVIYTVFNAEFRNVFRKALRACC
Nature of the series: 3H-YM-09151-2 binding. The following applies: 3H-YM-09151-2, cloned human D4.2 membranes. The procedure:
By this method the inhibition by drugs of the binding of the dopamine D4 antagonist ^3H-YM-09151-2 to dopamine D4 receptors in cloned human dopamine receptor subtype 4.2 membranes is determined in vitro. Accordingly, this is a test for affinity for dopamine D4 receptors. The test is performed using a preparation of cloned dopamine D4 cell membranes CRM-016®, Dupharma A/S, Denmark, in accordance with the product specifications.

Regarding `c1ccc2c(c1)CCC2CCN1CCN(c2ccc3c(c2)OCO3)CC1` (centres unmarked) (as salt: fumarate) [Compound 6a, 1-[2-[4-(3,4-Methylenedioxyphenyl)-piperazine-1-yl]ethyl]-indane], the melting point (as a rule, the temperature of the solid-liquid transition) lay within 191 to 192 °C.
As for `c1ccc2c(c1)CC(CN1CCN(c3ccc4c(c3)OCO4)CC1)C2` (as salt: oxalate) [Compound 6b], the melting point fell in the range of 197 to 199 °C.
Consider `c1ccc2c(c1)CCC2CN1CCN(c2ccc3c(c2)OCO3)CC1` (centres unmarked) [Compound 4a], for which, in series [1], the IC50 (in general, the concentration needed to halve the response being measured) turned out to be 8.8 nM.
As for `Brc1ccc2c(c1)C(CN1CCN(c3ccc4c(c3)OCO4)CC1)CC2` (centres unmarked) [Compound 4b], the “% inhibition of binding at 50 nM” value in series [1] (at 50 nM) was 33% at 50 nM.
For `c1ccc2c(c1)CCC2CCN1CCN(c2ccc3c(c2)OCO3)CC1` (centres unmarked) [Compound 6a, 1-[2-[4-(3,4-Methylenedioxyphenyl)-piperazine-1-yl]ethyl]-indane], the half-inhibitory concentration (IC50) in series [1] amounted to 5.6 nM.
In series [1], `c1ccc2c(c1)CC(CN1CCN(c3ccc4c(c3)OCO4)CC1)C2` [Compound 6b] had an IC50 of 1.8 nM.
The same measure, in the same setting: with `O=C(CCCN1CCN(c2ccc3c(c2)OCO3)CC1)C1CNc2ccccc21` (centres unmarked) [Compound 9a, 2,3-Dihydro-3-[4-[4[(3,4-methylenedioxyphenyl)piperazine-1-yl]butyl-1-oxo]]-1H-indole] the figure was 4.3 nM; with `CC(=O)N1CC(CCN2CCN(c3ccc4c(c3)OCO4)CC2)c2ccccc21` (centres unmarked) [Compound 9b, 1-Acetyl-2,3-dihydro-3-[2-[4-[(3,4-methylenedioxyphenyl)piperazine-1-yl]ethyl]]1H-indole], 3.7 nM.
